Earlier results, collected in patent publication US20230414620A1, “TOPICAL RUXOLITINIB FOR TREATING LICHEN PLANUS” (Incyte Corporation, priority 2020, published 2023).

How the values were obtained:
[1] = system: steroid refractory graft versus host disease (GVHD); settings: systemic JAK1, 2 inhibition
[2] = system: refractory dermatomyositis (DM); settings: case report

N#CC[C@H](C1CCCC1)n1cc(-c2ncnc3[nH]ccc23)cn1 [ruxolitinib, (R)-3-(4-(7H-pyrrolo[2,3-d]pyrimidin-4-yl)-1H-pyrazol-1-yl)-3-cyclopentylpropanenitrile]
efficacy in steroid refractory GVHD [1]: highly effective | response in refractory dermatomyositis [2]: exceptional responder
